Source: US10844032B2, “Substituted benzofuran, benzothiophene and indole Mcl-1 inhibitors” (Vanderbilt University, priority 2012, dated 2020)

Molecular target: recombinant Mcl-1 (residues 172-327) (Homo sapiens (Human), UniProt Q07820)
Assay: Bak peptide fluorescence polarization anisotropy competition assay, Mcl-1
Type: binding
Settings: Table 2, Ki range; FITC-Bak peptide 10 nM, Mcl-1 14 nM; read-out: Ki for inhibition of Mcl-1

recombinant Mcl-1 (residues 172-327), sequence (Q07820 172-327): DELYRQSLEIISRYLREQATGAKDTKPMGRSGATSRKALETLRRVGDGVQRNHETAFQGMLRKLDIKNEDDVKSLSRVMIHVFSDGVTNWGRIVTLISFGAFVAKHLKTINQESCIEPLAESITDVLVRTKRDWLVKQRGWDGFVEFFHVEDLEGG

| Ki [nM] | Compound |
| --- | --- |
| ≤ 100 | Cc1cc(OCCCc2c(C(=O)NS(C)(=O)=O)[nH]c3cccc(Cl)c23)ccc1Cl [Example 50, 4-chloro-3-(3-(4-chloro-3-methylphenoxy)propyl)-N-(methylsulfonyl)-1H-indole-2-carboxamide] |
| ≤ 100 | Cc1cccc(S(=O)(=O)NC(=O)c2[nH]c3c(-c4c(CO)nn(C)c4C)cccc3c2CCCOc2cc(C)c(Cl)c(C)c2)c1 [Example 204, 3-(3-(4-chloro-3,5-dimethylphenoxy)propyl)-7-(3-(hydroxymethyl)-1,5-dimethyl-1H-pyrazol-4-yl)-N-(m-tolylsulfonyl)-1H-indole-2-carboxamide] |
| ≤ 100 | Cc1cc(OCCCc2c(C(=O)NS(=O)(=O)CCNC(=O)c3cccc(C(F)(F)F)c3)[nH]c3cc(Cl)ccc23)cc(C)c1Cl [Example 255, 6-chloro-3-(3-(4-chloro-3,5-dimethylphenoxy)propyl)-N-((2-(3-(trifluoromethyl)benzamido)ethyl)sulfonyl)-1H-indole-2-carboxamide] |

Same assay, conditions: read-out: Ki for inhibition of Mcl-1

| Ki [nM] | Compound |
| --- | --- |
| 301 to 500 | O=C(NCCS(=O)(=O)NC(=O)c1[nH]c2cc(Cl)ccc2c1CCCOc1cccc2ccccc12)c1ccc2cc[nH]c2c1 [Example 239, N-((2-(1H-indole-6-carboxamido)ethyl)sulfonyl)-6-chloro-3-(3-(naphthalen-1-yloxy)propyl)-1H-indole-2-carboxamide] |
| 1000 to 9990 | O=C(NS(=O)(=O)Cc1ccccc1)c1sc2ccccc2c1CCCOc1cccc2ccccc12 [Example 62, N-(Benzylsulfonyl)-3-(3-(naphthalen-1-yloxy)propyl)benzo[b]thiophene-2-carboxamide] |
| 301 to 500 | Cc1cc(OCCCc2c(C(=O)NS(=O)(=O)CCOc3ccccc3)[nH]c3ccccc23)cc(C)c1Cl [Example 141, 3-(3-(4-chloro-3,5-dimethylphenoxy)propyl)-N-((2-phenoxyethyl)sulfonyl)-1H-indole-2-carboxamide] |
| 10000 to 50000 | CS(=O)(=O)NC(=O)c1[nH]c2ccccc2c1CCCOc1ccc(C(F)(F)F)cc1 [Example 34, N-(methylsulfonyl)-3-(3-(4-(trifluoromethyl)phenoxy)propyl)-1H-indole-2-carboxamide] |
| 101 to 299 | Cc1cc(OCCCc2c(C(=O)NS(=O)(=O)c3ccccc3)[nH]c3c(-c4ccco4)cccc23)cc(C)c1Cl [Example 86, 3-(3-(4-chloro-3,5-dimethylphenoxy)propyl)-7-(furan-2-yl)-N-(phenylsulfonyl)-1H-indole-2-carboxamide] |
| 101 to 299 | Cc1cc(OCCCc2c(C(=O)NS(=O)(=O)c3ccccc3)[nH]c3c(-c4ccncc4)cccc23)cc(C)c1Cl [Example 94, 3-(3-(4-chloro-3,5-dimethylphenoxy)propyl)-N-(phenylsulfonyl)-7-(pyridin-4-yl)-1H-indole-2-carboxamide] |
| 1000 to 9990 | O=C(O)c1sc2cc(-c3ccccc3)ccc2c1CCCOc1cccc2ccccc12 [Example 13, 3-(3-(naphthalen-1-yloxy)propyl)-6-phenylbenzo[b]thiophene-2-carboxylic acid] |
| 101 to 299 | Cc1cccc(Cn2cccc2C(=O)NCCS(=O)(=O)NC(=O)c2[nH]c3cc(Cl)ccc3c2CCCOc2cc(C)c(Cl)c(C)c2)c1 [Example 245, 6-chloro-3-(3-(4-chloro-3,5-dimethylphenoxy)propyl)-N-((2-(1-(3-methylbenzyl)-1H-pyrrole-2-carboxamido)ethyl)sulfonyl)-1H-indole-2-carboxamide] |
| 101 to 299 | Cc1ccccc1-c1cccc2c(CCCOc3cc(C)c(Cl)c(C)c3)c(C(=O)NS(C)(=O)=O)[nH]c12 [Example 84, 3-(3-(4-chloro-3,5-dimethylphenoxy)propyl)-N-(methylsulfonyl)-7-(o-tolyl)-1H-indole-2-carboxamide] |
| 501 to 999 | Cc1cc(OCCCc2c(C(=O)NS(=O)(=O)CCc3ccccc3)[nH]c3ccccc23)cc(C)c1Cl [Example 140, 3-(3-(4-chloro-3,5-dimethylphenoxy)propyl)-N-(phenethylsulfonyl)-1H-indole-2-carboxamide] |
